From patent US10940139B2, “Compounds that interact with the Ras superfamily for the treatment of cancers, inflammatory diseases, rasopathies, and fibrotic disease” (Shy Therapeutics LLC, priority 2017, dated 2021)

Assays:
[1] = tested on: MIA-PACA2 pancreatic cancer cell lines; test: Cell proliferation assay, alternate assay conditions (DAPI fluorescence); assay type: cell-based; details: Homo sapiens, MIA PaCa-2; for inhibition at 10 µM: * = tested at 10 μM, alternate conditions, MIA-PACA2
Experimental: Cell lines: Tumor-derived pancreatic cancer cell lines MIA-PACA2 were purchased from ATCC and grown in complete DMEM-High Glucose medium supplemented with penicillin (100 U/mL), streptomycin (100 μg/mL), and 10% heat-inactivated FBS at 37° C. in a humidified incubator with 5% CO2.
Method: Cells are plated at 4000 cells/well density in 96-wells plate. The next day tested small molecules are added to the cells in the final concentration of 10 μM in the presence of 0.3% DMSO and 10% FBS. After small molecules addition, cells are incubated for 4 days at 37° C. in a humidified incubator with 5% CO2. For IC50 value determination, serial dilutions of compounds were added to cells under the same conditions.
Assay: At the end of the incubation period, cell cultures are fixed with a 50-50 mixture (v/v) acetone-methanol for 10 minutes at −20° C., followed by rehydration in PBS for 10 minutes at room temperature. After rehydration, cells are stained with DAPI (1 μg/ml) in PBS for 10 minutes at room temperature, followed by 3 washes with PBS. After staining, DAPI fluorescence is recorded (358 nm excitation/461 nm emission) with the 96-well plate reader Molecular Devices Spectramax M3; degree of small mole-cule-dependent proliferation inhibition is calculated from raw data assuming No Serum cells value as 100%.

[2] = target: KRas G12D mutant protein (Homo sapiens (Human), UniProt P01116, G12D); test: Ras GTP binding domain inhibition assay (labeled GTP); details: 20 μM compound; KRas G12D; read-out: % Inhibition at 20 μM of K-Ras mutant and wild-type protein, KRas G12D
[3] = target: KRas G12C mutant (Homo sapiens (Human), UniProt P01116, G12C); test: as above; details: 20 μM compound; KRas G12C; read-out: % Inhibition at 20 μM of K-Ras mutant and wild-type protein, KRas G12C
In short: (§1)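 Inhibition of labeled GTP binding is measured on immobilized His-KRas protein in Tris buffer pH 7.5 with 1 mM MgCl2 and 1 mM DTT.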

[4] = target: KRas G12C/Q61H double mutant (Homo sapiens (Human), UniProt P01116, G12C/Q61H); test: as above; details: 20 μM compound; KRas G12C/Q61H double mutant; read-out: % Inhibition at 20 μM of K-Ras mutant and wild-type protein, KRas G12C Q61H
In short: as §1

[5] = target: KRas G12D/Q61H double mutant (Homo sapiens (Human), UniProt P01116, G12D/Q61H); test: as above; details: 20 μM compound; KRas G12D/Q61H double mutant; read-out: % Inhibition at 20 μM of K-Ras mutant and wild-type protein, KRas G12D Q61H
In short: as §1

[6] = target: KRas Q61H mutant (Homo sapiens (Human), UniProt P01116, Q61H); test: as above; details: 20 μM compound; KRas Q61H; read-out: % Inhibition at 20 μM of K-Ras mutant and wild-type protein, KRas Q61H
In short: as §1

[7] = target: KRas wild type (Homo sapiens (Human), UniProt P01116); test: as above; details: 20 μM compound; KRas wild type; read-out: % Inhibition at 20 μM of K-Ras mutant and wild-type protein, KRas wild type
In short: as §1

Chain of KRas wild type (P01116-2 other isoform, or with tags, fused parts or gaps): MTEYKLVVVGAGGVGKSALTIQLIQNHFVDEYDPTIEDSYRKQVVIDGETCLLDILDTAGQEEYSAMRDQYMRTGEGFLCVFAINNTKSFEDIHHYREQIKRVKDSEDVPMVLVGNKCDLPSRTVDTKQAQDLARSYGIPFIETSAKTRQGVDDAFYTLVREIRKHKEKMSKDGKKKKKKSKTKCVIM
Chain of KRas Q61H mutant (P01116-2 other isoform, or with tags, fused parts or gaps Q61H): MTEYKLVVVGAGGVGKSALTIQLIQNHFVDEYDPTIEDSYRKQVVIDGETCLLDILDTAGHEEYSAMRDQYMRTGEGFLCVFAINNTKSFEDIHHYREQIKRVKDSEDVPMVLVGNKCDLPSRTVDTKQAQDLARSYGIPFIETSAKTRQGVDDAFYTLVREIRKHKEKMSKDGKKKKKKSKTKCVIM
Chain of KRas G12C mutant (P01116-2 other isoform, or with tags, fused parts or gaps G12C): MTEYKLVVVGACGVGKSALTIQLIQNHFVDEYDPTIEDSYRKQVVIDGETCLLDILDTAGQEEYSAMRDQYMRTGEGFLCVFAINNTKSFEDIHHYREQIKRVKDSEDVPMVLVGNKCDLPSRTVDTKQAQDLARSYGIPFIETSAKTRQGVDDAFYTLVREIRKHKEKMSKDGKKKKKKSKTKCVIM
Chain of KRas G12D mutant protein (P01116-2 other isoform, or with tags, fused parts or gaps G12D): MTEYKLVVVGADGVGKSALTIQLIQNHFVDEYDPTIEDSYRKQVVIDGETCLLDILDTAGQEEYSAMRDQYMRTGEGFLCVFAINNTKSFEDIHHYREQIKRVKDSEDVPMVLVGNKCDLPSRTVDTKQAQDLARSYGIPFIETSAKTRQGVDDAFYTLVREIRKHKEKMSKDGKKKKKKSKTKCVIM
Chain of KRas G12C/Q61H double mutant (P01116-2 other isoform, or with tags, fused parts or gaps G12C/Q61H): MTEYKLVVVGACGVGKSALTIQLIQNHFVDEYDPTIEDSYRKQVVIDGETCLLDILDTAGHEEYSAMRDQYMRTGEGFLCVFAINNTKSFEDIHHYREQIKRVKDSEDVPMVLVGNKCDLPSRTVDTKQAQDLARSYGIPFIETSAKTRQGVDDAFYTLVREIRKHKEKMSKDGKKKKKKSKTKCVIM
Chain of KRas G12D/Q61H double mutant (P01116-2 other isoform, or with tags, fused parts or gaps G12D/Q61H): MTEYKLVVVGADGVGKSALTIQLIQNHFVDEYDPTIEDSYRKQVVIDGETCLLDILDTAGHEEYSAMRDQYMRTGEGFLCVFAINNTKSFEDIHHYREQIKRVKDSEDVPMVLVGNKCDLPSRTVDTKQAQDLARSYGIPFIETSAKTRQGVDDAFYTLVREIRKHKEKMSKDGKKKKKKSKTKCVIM

Oc1nc(-c2ccccn2)nc2c(C3CC3)csc12 [drawing 1820]
inhibition at 10 µM [1]: 76 to 100%

Oc1nc(-c2ccccn2)nc2c(CC3CNC3)csc12 [drawing 1821]
inhibition at 10 µM [1]: 25 to 50%

COc1cnc(CNC(=O)c2csc3c(O)nc(-c4ccccn4)nc23)[nH]c1=O [drawing 1822]
inhibition at 10 µM [1]: 51 to 75%

COc1cnc(CNC(=O)c2cc3nc(-c4ccccn4)nc(O)c3s2)[nH]c1=O [drawing 1823]
inhibition at 10 µM [1]: 25 to 50%

Cc1sc2c(O)nc(-c3ccccn3)nc2c1Br [drawing 1824]
inhibition at 10 µM [1]: 76 to 100%

COc1cnc(CNC(=O)c2c(C)sc3c(O)nc(-c4ccccn4)nc23)[nH]c1=O [drawing 1825]
inhibition at 10 µM [1]: 0%

COc1cnc(CNC(=O)c2sc3c(O)nc(-c4ccccn4)nc3c2C)[nH]c1=O [drawing 1826]
inhibition at 10 µM [1]: 0%

O=C(c1csc2c(O)nc(-c3ccccn3)nc12)N1CCNC(c2ccc(Cl)cc2)C1 (centres unmarked) [drawing 1827]
inhibition at 10 µM [1]: 76 to 100%

Oc1nc(-c2ccccn2)nc2c(CC3CCNC3)csc12 (centres unmarked) [drawing 1828]
inhibition at 10 µM [1]: 0%

O=c1[nH]c(-c2ccccn2)nc2c([C@@H]3O[C@H](CO)[C@@H](O)[C@H]3O)csc12 [drawing 1829]
inhibition at 10 µM [1]: 76 to 100%

Cn1cnc(-c2nc(O)c3c(-c4ccccc4)c(-c4ccncc4)sc3n2)c1 [drawing 1830]
inhibition at 10 µM [1]: 76 to 100%

COCCNc1nc(-c2ccccn2)nc(-c2cccc(OCCN(C)C)c2)c1Oc1ccccc1 [drawing 1831]
inhibition at 10 µM [1]: 76 to 100%

COCCNc1nc(-c2cn(C)cn2)nc2sc(-c3ccncc3)c(-c3ccccc3)c12 [drawing 1832]
inhibition at 10 µM [1]: 76 to 100%

COc1nc(-c2cn(C)cn2)nc2sc(-c3ccncc3)c(-c3ccccc3)c12 [drawing 1833]
inhibition at 10 µM [1]: 76 to 100%

OCC1(c2ccc(-c3nc(-c4ccccn4)nc(-c4ccc(C5(CO)CC5)cc4)c3Oc3ccccc3)cc2)CC1 [drawing 1834]
inhibition at 10 µM [1]: 76 to 100%

COc1ccc(COC[C@H]2O[C@@H](c3csc4c(=O)[nH]c(-c5ccccn5)nc34)[C@H](O)[C@@H]2O)cc1 [drawing 1835]
inhibition at 10 µM [1]: 1 to 25%

OCC1(c2ccc(-c3nc(-c4ccccn4)nc(O)c3Oc3ccccc3)cc2)CC1 [drawing 1836]
inhibition at 10 µM [1]: 76 to 100%

COCCNc1nc(-c2nccn2C)nc2sc(-c3ccccc3)c(-c3ccccc3)c12 [drawing 1837]
inhibition at 10 µM [1]: 76 to 100% | IC50 ([1]; MIA-PACA2, same assay as the % inhibition (alternate conditions)): 501 to 1000 nM

Cn1ccnc1-c1nc(O)c2c(-c3ccccc3)c(-c3ccccc3)sc2n1 [drawing 1838]
inhibition at 10 µM [1]: 76 to 100%

COCCNc1nc(-c2ccccn2)nc2c1c(-c1ccccc1)nn2-c1ccccn1 [drawing 3538]
inhibition at 20 µM [2]: 51 to 75% | inhibition at 20 µM [3]: 51 to 75% | inhibition at 20 µM [4]: 76 to 100% | inhibition at 20 µM [5]: 51 to 75% | inhibition at 20 µM [6]: 51 to 75% | inhibition at 20 µM [7]: 51 to 75%

Oc1nc(-c2ccccn2)nc2c1c(-c1ccccc1)nn2-c1ccccn1 [drawing 3539]
inhibition at 20 µM [2]: 51 to 75% | inhibition at 20 µM [3]: 51 to 75% | inhibition at 20 µM [4]: 51 to 75% | inhibition at 20 µM [5]: 51 to 75% | inhibition at 20 µM [6]: 51 to 75% | inhibition at 20 µM [7]: 25 to 50%

COc1nc(-c2ccccn2)nc2c1c(-c1ccccc1)nn2-c1ccccn1 [drawing 3540]
inhibition at 20 µM [2]: 51 to 75% | inhibition at 20 µM [3]: 51 to 75% | inhibition at 20 µM [4]: 25 to 50% | inhibition at 20 µM [5]: 51 to 75% | inhibition at 20 µM [6]: 51 to 75% | inhibition at 20 µM [7]: 25 to 50%

COCC(C)Nc1nc(-c2ccccn2)nc2sc(-c3ccncc3)c(-c3ccccc3)c12 (centres unmarked) [drawing 3541]
inhibition at 20 µM [2]: 25 to 50% | inhibition at 20 µM [3]: 51 to 75% | inhibition at 20 µM [4]: 25 to 50% | inhibition at 20 µM [5]: 51 to 75% | inhibition at 20 µM [6]: 51 to 75% | inhibition at 20 µM [7]: 25 to 50%

COc1c(O)nc(-c2ccccn2)nc1Oc1cccc(C(F)(F)F)c1 [drawing 3557]
inhibition at 20 µM [2]: 76 to 100% | inhibition at 20 µM [3]: 25 to 50% | inhibition at 20 µM [4]: 76 to 100% | inhibition at 20 µM [5]: 51 to 75% | inhibition at 20 µM [6]: 51 to 75% | inhibition at 20 µM [7]: 25 to 50%

Oc1nc(-c2ccccn2)nc(Oc2cccc(C(F)(F)F)c2)c1O [drawing 3558]
inhibition at 20 µM [2]: 51 to 75% | inhibition at 20 µM [3]: 51 to 75% | inhibition at 20 µM [4]: 76 to 100% | inhibition at 20 µM [5]: 51 to 75% | inhibition at 20 µM [6]: 51 to 75% | inhibition at 20 µM [7]: 1 to 25%

Oc1nc(-c2ccccn2)nc2cc(-c3ccncc3)sc12 [drawing 3561]
inhibition at 20 µM [2]: 51 to 75% | inhibition at 20 µM [3]: 25 to 50% | inhibition at 20 µM [4]: 25 to 50% | inhibition at 20 µM [5]: 51 to 75% | inhibition at 20 µM [6]: 25 to 50% | inhibition at 20 µM [7]: 51 to 75%

Oc1nc(-c2ccccn2)nc2cc(-c3ccccc3)sc12 [drawing 3562]
inhibition at 20 µM [2]: 51 to 75% | inhibition at 20 µM [3]: 25 to 50% | inhibition at 20 µM [4]: 25 to 50% | inhibition at 20 µM [5]: 51 to 75% | inhibition at 20 µM [6]: 25 to 50% | inhibition at 20 µM [7]: 51 to 75%
